Laboratory results: patent US5426106A, “Pyrrolo-pyridazinone derivatives” (Merck Sharp & Dohme Limited, priority 1992, dated 1995)

Tests used:
NMDA receptors = assay: Cortical slice studies, responses to NMDA in rat cortical slice; format: cell-based; conditions: from righthand shift in NMDA concentration-response curves, read-out: apparent equilibrium constant (Kb) in response to NMDA
Description: (§1) The compounds useful in this invention potently and selectively block responses to NMDA and/or AMPA in a brain slice from rat cortex, and inhibit the binding of agonists and antagonists to the strychnine-insensitive site present on the NMDA receptor and/or AMPA binding to rat forebrain membranes.
The effects of compounds of the invention on responses to NMDA and AMPA can be assessed using the rat cortical slice as described by Wong et al., Proc. Natl. Acad. Sci. USA, 1986, 83, 7104. The apparent equilibrium constant (Kb) is calculated from the righthand shift in the NMDA or AMPA concentration-response curves produced by the compound under test.

[1] = target: T1, strychnine-insensitive site present on the NMDA receptor (Rattus norvegicus, UniProt P35439); assay: Displacement of 3H-L-689,560 binding to the strychnine-insensitive site of rat forebrain membranes; conditions: 3H-L-689,560, rat forebrain membranes; read-out: concentration required to displace 50% of the specific binding (IC50)
T1 construct: NMDA receptor of rat forebrain membranes; from tissue; host or cells: rat forebrain membranes
Description: as §1
The ability of test compounds to displace ^3 H-L-689,560 (trans-2-carboxy-5,7-dichloro-4-phenylaminocarbonylamino-1,2,3,4-tetrahydroquinoline) binding to the strychnine-insensitive site present on the NMDA receptor of rat forebrain membranes can be determined by the method of Grimwood et al., Proceedings of The British Pharmacological Society, July 1991, Abstract C78.

## O=c1[nH]n2cccc2c(O)c1-c1ccccc1 [Example 1, 4-Hydroxy-3-phenylpyrrolo[1,2-b]pyridazin-2(1H)-one]
NMDA receptors
  Kb: < 150 µM
[1]
  IC50: < 50 µM
